Experimental data taken from patent US20040086942A1, “Ige receptor antagonists” (priority 2003, published 2004).
Like-named read-outs stand apart in the source and are kept apart here. Where a SMILES comes first, the peptide text is derived from it. Bridges are numbered along the chain shown (N, C = ends). [ ]: non-standard residue; d: D form.

How the values were obtained:
[1] = 2D NMR structural score versus reference peptide; type: physicochemical; set-up: key to Struct. Score: +++ indicates the peptide is structured similarly to IGE063 (SEQ ID NO:49); + indicates the peptide is structured similarly to IGE063 (SEQ ID NO:49), but is less stable; −/+ indicates the peptide has some elements of stable structure, but the conformation differs from the reference structure (e.g., a different turn type is evident); − indicates the peptide is predominantly unstructured in aqueous solution; key to Structure Score: +++, peptide structurally similar to reference; +, structurally similar to reference but significantly less stable; +/−, peptide has some elements of stable structure, but the conformation differs from the reference structure; −, peptide is predominantly unstructured; *peptide IGE037 (SEQ ID NO:128) was initially unstructured (monomeric form), but became structured after spontaneous dimer formation; details: for Struct. Score: reference IGE063; for Structure Score: reference IGE134
Description: Peptides were evaluated by 2D NMR spectroscopy to assess the effect of substitutions on the three-dimensional structure of the peptide analog. All peptides with a structural score indicated in Table 5 were analyzed by 2D NMR spectroscopy; backbone ^1H resonances were assigned and ^3JHN-Hα coupling constants were measured and compared to the reference peptide (IGE063, SEQ ID NO:49; see Example 5). Peptides are defined to be of similar structure to the reference peptide provided chemical shifts, coupling constants, and NOEs are consistent with that structure.
A structural score was assigned to peptides analyzed by 2D NMR spectroscopy. For each of these peptides, backbone ^1H resonances have been assigned, and the ^3JHN-Ha coupling constants have been measured and compared to the reference peptide (i.e., IGE134 (SEQ ID NOS:155, 171)). Peptides are defined to be of similar structure to the reference peptide provided. chemical shifts, coupling constants, and NOEs are consistent with that structure.

[2] = target: T1, alpha subunit of the human FcεRI receptor (Homo sapiens, UniProt P12319); test: cell-based 125I-IgE binding inhibition assay on CHO FcεRI+ cells; details: for fold reduction in inhibition/binding: truncations and alanine substitutions of IGE063
T1 construct: expressed in transfected cells; host or cells: Chinese hamster ovary (CHO FcεRI+) cells
T1 sequence (P12319 26-257): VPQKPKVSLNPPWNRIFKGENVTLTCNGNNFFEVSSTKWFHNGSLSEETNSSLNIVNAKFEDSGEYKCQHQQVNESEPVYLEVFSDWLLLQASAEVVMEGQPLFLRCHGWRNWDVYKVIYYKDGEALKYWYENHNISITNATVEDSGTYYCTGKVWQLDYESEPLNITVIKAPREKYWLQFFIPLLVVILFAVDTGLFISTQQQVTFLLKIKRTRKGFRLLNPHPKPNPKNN
Description: . The following day the cells were rinsed three times with PBS and then once with F12/DMEM. Peptide stocks were reconstituted in 100 mM Hepes buffered water, pH 7.2, at a concentration of 5 mg/mL. Working concentrations of the peptide were diluted in assay buffer (see below). 75 ul, of a desired concentration of peptide was added to the top row of a separate 96 well microtiter plate and serially diluted 1:3 in 50 uL of the assay buffer (F12/DMEM, 1% BSA, 0.05% NaN3 and […] Hepes pH 7.2). Starting concentrations ranged from 50-500 uM. Next, 50 uL of the diluted peptide was transferred to the 96 microtiter well plate containing a monolayer of CHO FcεRI+ cells. After a 1 hour incubation at room temperature, 50 uL of ^125I-IgE (1.5 nM) was added to each well and incubated for an additional 45-60 minutes at 4° C. followed by 5 washes with 200 uL of assay buffer. Cells were solubilized with 200 uL of 1 N NaOH and transferred to a 96 microtiter tube for counting in a gamma counter to determine counts bound. The data were plotted using KaleidaGraph 3.0 and fitted using 4-parameter fits. IC50 values were determined for each peptide.
Six peptides based on selected clones from library #516 were synthesized and assayed for the ability to inhibit the binding of ^125I-IgE to a Chinese hamster ovary cell line expressing the alpha subunit of the IgE high affinity receptor, FcεRI. The peptides were synthesized as nine residue monomers and oxidized to allow the formation of a disulfide bridge resulting in a cyclic peptide. The size of each peptide was confirmed by mass spectrometry.

[3] = IGE037: initially, read-out: IC50
[4] = inhibition of labeled IgE-binding to CHO FcεRI+ cells, read-out: Mean IC50(uM) ± S.D.

Struct. Score [1] | fold reduction in inhibition/binding [2] [fold] | IC50 [2, 3] [µM] | IC50 [2, 4] [µM] | SMILES | Structure Score [1]
+ | 30 |  |  | CSCC[C@H](NC(=O)[C@@H]1CSSC[C@H](NC(=O)[C@H](CCCNC(=N)N)NC(=O)[C@@H]2CCCN2C(=O)[C@H](CC(C)C)NC(=O)[C@@H](N)CC(N)=O)C(=O)N[C@@H]([C@@H](C)O)C(=O)N[C@@H](CCC(=O)O)C(=O)NCC(=O)N2CCC[C@H]2C(=O)N[C@@H](Cc2c[nH]c3ccccc23)C(=O)N[C@@H](C)C(=O)N[C@@H](Cc2c[nH]c3ccccc23)C(=O)N[C@@H](C(C)C)C(=O)N1)C(=O)O [IGE074, NLPRCTEGPWAWVCM] (H-NLPRCTEGPWAWVCM-OH; disulfide 5-14) | 
+++ | 256 |  |  | CSCC[C@H](NC(=O)[C@@H]1CSSC[C@H](NC(=O)[C@H](CCCNC(=N)N)NC(=O)[C@@H]2CCCN2C(=O)[C@H](CC(C)C)NC(=O)[C@@H](N)CC(N)=O)C(=O)N[C@@H]([C@@H](C)O)C(=O)N[C@@H](CCC(=O)O)C(=O)N[C@@H](C)C(=O)N2CCC[C@H]2C(=O)N[C@@H](Cc2c[nH]c3ccccc23)C(=O)NCC(=O)N[C@@H](Cc2c[nH]c3ccccc23)C(=O)N[C@@H](C(C)C)C(=O)N1)C(=O)O [IGE079, NLPRCTEAPWGWVCM] (H-NLPRCTEAPWGWVCM-OH; disulfide 5-14; N-terminus and C-terminus assumed) | 
+++ |  |  | 1 ± 0.6 | CSCC[C@H](NC(=O)[C@@H]1CSSC[C@H](NC(=O)[C@H](CCCNC(=N)N)NC(=O)[C@@H]2CCCN2C(=O)[C@H](CC(C)C)NC(=O)[C@@H](N)CC(N)=O)C(=O)N[C@@H]([C@@H](C)O)C(=O)N[C@@H](CCC(=O)O)C(=O)NCC(=O)N2CCC[C@H]2C(=O)N[C@@H](Cc2c[nH]c3ccccc23)C(=O)NCC(=O)N[C@@H](Cc2c[nH]c3ccccc23)C(=O)N[C@@H](C(C)C)C(=O)N1)C(=O)O [IGE062, NLPRCTEGPWGWVCM] (H-NLPRCTEGPWGWVCM-OH; disulfide 5-14; N-terminus and C-terminus assumed) | 

Second part, the compound before the results:

SMILES | Struct. Score [1] | fold reduction in inhibition/binding [2] [fold] | IC50 [2, 3] [µM] | IC50 [2, 4] [µM] | Structure Score [1]
CSCC[C@H](NC(=O)[C@@H]1CSSC[C@H](NC(=O)[C@H](CCCNC(=N)N)NC(=O)[C@@H]2CCCN2C(=O)[C@H](CC(C)C)NC(=O)[C@@H](N)CC(N)=O)C(=O)N[C@@H]([C@@H](C)O)C(=O)N[C@@H](CCC(=O)O)C(=O)NCC(=O)N2CCC[C@H]2C(=O)N[C@@H](Cc2c[nH]c3ccccc23)C(=O)NCC(=O)N[C@@H](C)C(=O)N[C@@H](C(C)C)C(=O)N1)C(=O)O [IGE073, NLPRCTEGPWGAVCM] (H-NLPRCTEGPWGAVCM-OH; disulfide 5-14; N-terminus and C-terminus assumed) | + | 65 |  |  | 
CSCC[C@H](NC(=O)[C@@H]1CSSC[C@H](NC(=O)[C@H](CCCNC(=N)N)NC(=O)[C@@H]2CCCN2C(=O)[C@H](CC(C)C)NC(=O)[C@H](CC(N)=O)NC(C)=O)C(=O)N[C@@H]([C@@H](C)O)C(=O)N[C@@H](CCC(=O)O)C(=O)NCC(=O)N2CCC[C@H]2C(=O)N[C@@H](Cc2c[nH]c3ccccc23)C(=O)NCC(=O)N[C@@H](Cc2c[nH]c3ccccc23)C(=O)N[C@@H](C(C)C)C(=O)N1)C(=O)O [IGE063, Ac-NLPRCTEGPWGWVCM] (Ac-NLPRCTEGPWGWVCM-OH; disulfide 5-14) | +++ |  | ~1 | 1.8 ± 0.7 | 
CSCC[C@H](NC(=O)[C@@H]1CSSC[C@H](NC(=O)[C@H](CCCNC(=N)N)NC(=O)[C@@H]2CCCN2C(=O)[C@H](CC(C)C)NC(=O)[C@H](CC(N)=O)NC(C)=O)C(=O)N[C@@H]([C@@H](C)O)C(=O)N[C@@H](CCC(=O)O)C(=O)NCC(=O)N2CCC[C@H]2C(=O)N[C@@H](Cc2c[nH]c3ccccc23)C(=O)NCC(=O)N[C@@H](Cc2c[nH]c3ccccc23)C(=O)N[C@@H](C(C)C)C(=O)N1)C(=O)N[C@@H](C)C(=O)N[C@@H](CC(=O)O)C(=O)N[C@@H](CC(=O)O)C(N)=O [IGE031, Ac-NLPRCTEGPWGWVCMADD-nh2] (Ac-NLPRCTEGPWGWVCMADD-NH2; disulfide 5-14) | +++ |  |  | 1.1 ± 0.7 | 
CC(=O)N[C@@H](C)C(=O)N[C@@H](CC(C)C)C(=O)N[C@H]1CSSC[C@@H](C(=O)N[C@@H](Cc2ccc(O)cc2)C(=O)N[C@H](C(N)=O)C(C)C)NC(=O)[C@H](C(C)C)NC(=O)[C@H](C)NC(=O)[C@@H]2CCCN2C1=O [IGE038, Ac-ALCPAVCYV-nh2] (Ac-ALCPAVCYV-NH2; disulfide 3-7) |  |  | > 500 |  | −
CSCC[C@H](NC(=O)[C@@H]1CSSC[C@H](NC(=O)[C@H](CCCNC(=N)N)NC(=O)[C@@H]2CCCN2C(=O)[C@H](CC(C)C)NC(=O)[C@H](CC(N)=O)NC(C)=O)C(=O)N[C@@H]([C@@H](C)O)C(=O)N[C@@H](CCC(=O)O)C(=O)NCC(=O)N2CCC[C@H]2C(=O)N[C@@H](Cc2c[nH]c3ccccc23)C(=O)N[C@H](CCC(=O)O)C(=O)N[C@@H](Cc2c[nH]c3ccccc23)C(=O)N[C@@H](C(C)C)C(=O)N1)C(=O)O [IGE114, Ac-NLPRCTEGPWeWVCM] (Ac-NLPRCTEGPW[dE]WVCM-OH; disulfide 5-14) | +++ |  |  | 1.7 | 
CSCC[C@H](NC(=O)[C@@H]1CSSC[C@H](NC(=O)[C@@H]2CCCN2C(=O)[C@H](CC(C)C)NC(=O)[C@H](CC(N)=O)NC(C)=O)C(=O)N[C@@H]([C@@H](C)O)C(=O)N[C@@H](CCC(=O)O)C(=O)NCC(=O)N2CCC[C@H]2C(=O)N[C@@H](Cc2c[nH]c3ccccc23)C(=O)NCC(=O)N[C@@H](Cc2c[nH]c3ccccc23)C(=O)N[C@@H](C(C)C)C(=O)N1)C(=O)O [IGE107, Ac-NLPCTEGPWGWVCM] (Ac-NLPCTEGPWGWVCM-OH; disulfide 4-13) | + |  |  |  | 
CC(C)C[C@@H]1NC(=O)[C@H](C)NC(=O)[C@H](Cc2c[nH]cn2)NC(=O)CNC(=O)CNC(=O)[C@H](C(C)C)NC(=O)[C@H](Cc2ccc(O)cc2)NC(=O)[C@@H]2CSSC[C@H](NC1=O)C(=O)N[C@@H](C)C(=O)N[C@@H](CC(=O)O)C(=O)N[C@@H](C(C)C)C(=O)N[C@H](C(=O)N[C@@H](Cc1ccc(O)cc1)C(=O)N[C@H](C(=O)NCC(=O)N[C@@H](CCCNC(=N)N)C(=O)O)C(C)C)CSSC[C@H](NC(=O)[C@H](CCC(N)=O)NC(=O)[C@@H](N)C(C)C)C(=O)N1CCC[C@H]1C(=O)N[C@@H](Cc1c[nH]cn1)C(=O)N[C@@H](Cc1ccccc1)C(=O)N2 [IGE143] (H-VQCPHFCYVGGHALCADVCYVGR-OH; disulfide 3-19, 7-15 (inferred)) |  |  |  |  | +++
